Several values for one entry are separate records, joined by “and”; a condition that tells them apart may be missing. Equal values may be shown once. Entries after “also recorded” stand apart in the source; their conditions may differ. Where a name gives a salt, the structure may show the parent alone. Read-outs that look alike come from different tables or passages of the source.
Tests used:
CYP2B6 [1] = biological target: T1, CYP2B6 (Homo sapiens, UniProt P20813); design: purchased Sigma Aldrich (CYPexpress, Oxford Biomedical Research, Inc.) MTOXCE2B6; method as in PMID 17433521, PMID 9732386; conditions: read-out: Literature KM (converted), cited from earlier work
T1 sequence (P20813 1-491): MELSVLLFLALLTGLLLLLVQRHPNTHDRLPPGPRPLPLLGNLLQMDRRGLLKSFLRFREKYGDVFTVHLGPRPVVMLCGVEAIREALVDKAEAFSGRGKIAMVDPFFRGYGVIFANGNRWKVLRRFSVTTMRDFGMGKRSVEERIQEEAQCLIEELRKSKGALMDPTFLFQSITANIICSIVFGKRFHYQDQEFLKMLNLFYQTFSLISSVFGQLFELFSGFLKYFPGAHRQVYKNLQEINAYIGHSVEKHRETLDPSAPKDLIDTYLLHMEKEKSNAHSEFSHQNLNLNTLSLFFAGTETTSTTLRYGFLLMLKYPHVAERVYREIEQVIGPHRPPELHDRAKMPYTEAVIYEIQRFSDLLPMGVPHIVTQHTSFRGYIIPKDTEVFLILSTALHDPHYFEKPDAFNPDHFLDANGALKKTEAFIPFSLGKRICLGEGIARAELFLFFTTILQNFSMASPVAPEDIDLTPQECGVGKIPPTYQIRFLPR

CYP2B6 [2] = biological target: T1, CYP2B6; assay: pFluor50 Michaelis–Menten kinetics, CYP2B6 with Bzres; format: in vitro ADME; design: purchased Sigma Aldrich (CYPexpress, Oxford Biomedical Research, Inc.) MTOXCE2B6
Method: (§1) In general, the protocol for determination of the Michaelis–Menten kinetic parameters (KM and Vmax) involved addition of the appropriate master mix to phosphate buffer followed by addition of the appropriate amount of enzyme to the mix. The master mix was determined for each specific CPY450 based on empirical methods involving each reagent to obtain a linear range of enzyme activity. A total of 30 µL of this enzyme mix was then added to each well of the 384-well plate. Next, initial background readings were taken for 5 min, after which the appropriate amount of substrate was dispensed into each well using the onboard reagent dispenser of the plate reader. All plates contained one blank well without enzyme (only master mix) for each substrate concentration. […] Table 1 provides the formulation of the master mix for each CYP, the kinetic read time with substrate, the read time interval, the concentration range of the substrate used for the Michaelis–Menten kinetics, the Ex and Em wavelengths, and the concentration of substrate for inhibition/activation screening. Table S1 details the specific parameters used for the plate reader for each CYP–substrate pair.
For determining the Michaelis–Menten kinetic parameters (KM and Vmax) for each CYP–substrate pair, kinetic studies were performed in which a range of different concentrations of the substrate were used. Table 1 details the formulations for the master mix, CYPexpress^TM concentrations, and concentration ranges of each specific substrate. For each CYP–substrate pair, plate reader parameters were set up as described in Table S1. The protocol used for Michaelis–Menten kinetics was similar for all the CYPs. Briefly, the working solution was prepared for each substrate and then primed into one of the dispensers on the plate reader. The other dispenser was primed with the buffer solution. 1.5 mL of phosphate buffer solution (pH 7.4) was used to prepare the master mix with the appropriate concentration of each reagent as specified in Table 1 (NADPH, NADP+, G6P, G6PDH, and/or MgCl2). The amount of CYPexpress reagent in units/(mg/mL) was determined for each enzyme as new lots may have slightly different activities, and the activity of the reagent may change over time. The appropriate mass of each CYPexpress^TM reagent needed to obtain the required units was measured using an analytical balance and was transferred to the master mix solution. This solution was mixed, and 30 µL of the solution was added to each well using a multichannel pipette. In each case, a blank control well was also included, as described in Figure S1. The plate was then transferred to the plate reader and readings were taken at the time intervals, for the appropriate length of time, and at the appropriate wavelengths as specified in Table 1.
Calibration curves were constructed using the determined plate reader settings (Figure S3) and concentrations of the products formed to allow for the calculation of product formation rates based on the observed fluorescence. For these calculations, we presumed that the total increase in observed fluorescence over time was due only to product formation. Calibration curves were generated with 6 different concentrations of the products (fluorescein and resorufin), which spanned the relative fluorescence units (RFU) observed during the kinetic experiments. This allowed for the calculation of product concentrations from the observed RFU, enabling the calculation of the product formation rates. Unfortunately, fluorescein benzyl ester (the product formed from the metabolism of dibenzyl fluorescein) is not commercially available. Therefore, the exact rate of formation could not be determined, and the Vmax for CYP3A4 cleavage of dibenzyl fluorescein has been reported as the rate of change in relative fluorescence units (RFUs) per minute.

CYP3A4 [3] = biological target: T2, CYP3A4 (Homo sapiens, UniProt P08684); design: purchased Sigma Aldrich (CYPexpress, Oxford Biomedical Research, Inc.) MTOXCE3A4; conditions: read-out: Literature IC50 (converted), cited from earlier work
CYP3A4 [4] = biological target: T2, CYP3A4; assay: pFluor50 fluorogenic CYP3A4 inhibition (IC50, time dependence)
CYP3A4 [5] = biological target: T2, CYP3A4; design: purchased Sigma Aldrich (CYPexpress, Oxford Biomedical Research, Inc.) MTOXCE3A4; method as in PMID 11095581, PMID 22252407; conditions: read-out: Literature KM (converted); cited from earlier work
CYP3A4 [6] = biological target: T2, CYP3A4; assay: pFluor50 Michaelis–Menten kinetics, CYP3A4 with DBF; format: in vitro ADME; design: purchased Sigma Aldrich (CYPexpress, Oxford Biomedical Research, Inc.) MTOXCE3A4
Method: as §1
For determining the Michaelis–Menten kinetic parameters (KM and Vmax) for each CYP–substrate pair, kinetic studies were performed in which a range of different concentrations of the substrate were used. Table 1 details the formulations for the master mix, CYPexpress^TM concentrations, and concentration ranges of each specific substrate. For each CYP–substrate pair, plate reader parameters were set up as described in Table S1. […] Briefly, the working solution was prepared for each substrate and then primed into one of the dispensers on the plate reader. […] The amount of CYPexpress reagent in units/(mg/mL) was determined for each enzyme as new lots may have slightly different activities, and the activity of the reagent may change over time. The appropriate mass of each CYPexpress^TM reagent needed to obtain the required units was measured using an analytical balance and was transferred to the master mix solution. […]

CYP2B6 [7] = biological target: T1, CYP2B6; assay: pFluor50 fluorogenic CYP2B6 inhibition (IC50, time dependence); conditions: 30 µM inhibitor, pre-incubation between 5 and 30 min
Method: (§2) Therefore, the pre-incubation time between the inhibitor and the CYP was first optimized prior to the full IC50 determinations. […] Therefore, a 10 min pre-incubation time was selected for convenience. […] Therefore, the sertraline pre-incubation time for the inhibition assay was optimized to 30 min (the time at which inhibition was no longer time-dependent).

CYP2D6 [8] = biological target: T3, CYP2D6 (Homo sapiens, UniProt P10635); assay: biochemical
CYP2B6 [9] = biological target: T1, CYP2B6; design: purchased Sigma Aldrich (CYPexpress, Oxford Biomedical Research, Inc.) MTOXCE2B6; conditions: read-out: Literature IC50 (converted), cited from earlier work
CYP2D6 [10] = biological target: T3, CYP2D6; assay: pFluor50 fluorogenic CYP2D6 inhibition (IC50, time dependence); conditions: 30 µM inhibitor, pre-incubation between 5 and 30 min
CYP2D6 [11] = biological target: T3, CYP2D6; design: purchased Sigma Aldrich (CYPexpress, Oxford Biomedical Research, Inc.) MTOXCE2D6; conditions: CYP2D6, Bufuralol/LC-MS/MS; read-out: Literature IC50 (converted); cited from earlier work
CYP2B6 [12] = biological target: T1, CYP2B6; assay: biochemical
Method: as §2

CYP2C9 = CYP2C9 (Homo sapiens, UniProt P11712); conditions: substrate Eres, model comparison by Akaike's Information Criterion
Chain of CYP2C9 (P11712 whole entry): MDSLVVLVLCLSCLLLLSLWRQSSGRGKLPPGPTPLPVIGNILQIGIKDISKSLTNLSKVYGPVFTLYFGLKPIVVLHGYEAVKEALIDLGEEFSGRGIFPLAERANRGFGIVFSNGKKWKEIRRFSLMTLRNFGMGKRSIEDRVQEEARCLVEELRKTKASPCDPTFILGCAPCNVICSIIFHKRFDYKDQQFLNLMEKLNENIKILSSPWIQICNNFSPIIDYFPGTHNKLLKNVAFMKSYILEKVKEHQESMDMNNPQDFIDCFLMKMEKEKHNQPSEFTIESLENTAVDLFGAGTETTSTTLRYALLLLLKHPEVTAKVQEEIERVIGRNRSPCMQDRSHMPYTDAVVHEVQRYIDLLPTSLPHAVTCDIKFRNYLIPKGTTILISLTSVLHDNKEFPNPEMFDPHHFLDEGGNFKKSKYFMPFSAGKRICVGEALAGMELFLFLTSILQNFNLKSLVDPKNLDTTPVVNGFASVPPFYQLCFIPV

T3 sequence (P10635 whole entry): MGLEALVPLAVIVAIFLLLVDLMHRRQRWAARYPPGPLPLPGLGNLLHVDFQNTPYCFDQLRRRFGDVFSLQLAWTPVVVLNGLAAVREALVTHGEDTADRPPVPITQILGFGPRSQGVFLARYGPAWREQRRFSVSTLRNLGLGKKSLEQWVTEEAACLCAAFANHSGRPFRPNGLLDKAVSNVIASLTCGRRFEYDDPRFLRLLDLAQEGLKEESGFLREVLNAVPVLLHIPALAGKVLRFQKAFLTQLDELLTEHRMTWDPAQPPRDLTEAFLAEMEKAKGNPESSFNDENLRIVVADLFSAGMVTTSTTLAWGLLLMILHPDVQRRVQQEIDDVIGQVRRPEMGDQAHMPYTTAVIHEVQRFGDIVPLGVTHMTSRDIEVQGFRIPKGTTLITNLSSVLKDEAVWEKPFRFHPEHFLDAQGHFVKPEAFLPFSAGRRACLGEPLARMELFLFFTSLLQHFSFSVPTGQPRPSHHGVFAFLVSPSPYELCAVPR
T2 sequence (P08684 2-503 limits assumed): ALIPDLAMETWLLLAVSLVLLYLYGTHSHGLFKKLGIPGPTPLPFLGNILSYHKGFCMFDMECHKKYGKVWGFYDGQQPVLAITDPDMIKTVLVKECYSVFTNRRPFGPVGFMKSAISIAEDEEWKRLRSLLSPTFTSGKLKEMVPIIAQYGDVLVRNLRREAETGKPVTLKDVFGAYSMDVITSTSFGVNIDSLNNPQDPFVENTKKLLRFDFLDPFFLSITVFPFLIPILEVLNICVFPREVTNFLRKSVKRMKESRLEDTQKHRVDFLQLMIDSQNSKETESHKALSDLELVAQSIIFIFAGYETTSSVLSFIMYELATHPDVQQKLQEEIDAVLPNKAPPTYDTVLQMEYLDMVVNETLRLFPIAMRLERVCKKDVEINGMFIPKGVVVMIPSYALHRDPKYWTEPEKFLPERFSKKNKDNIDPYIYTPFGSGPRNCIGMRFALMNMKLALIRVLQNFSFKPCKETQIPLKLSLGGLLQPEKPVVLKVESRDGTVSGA

SMILES: O=c1ccc2nc3ccc(OCc4ccccc4)cc3oc-2c1 [Bzres, 7-(benzyloxy)-3H-phenoxazin-3-one]
- Km (CYP2B6 [1]; CYP2B6, human Bl cell): 1.3 µM
- Km (CYP2B6 [1]; CYP2B6): 34 ± 10.4 µM
- Average Vmax (CYP2B6 [2]; CYP2B6 1 mg/mL, rate of product formation): 0.33 ± 0.1 nmol/min
- Km (CYP2B6 [2]; CYP2B6 1 mg/mL, three biological replicates, read-out: Average KM): 40.6 ± 19.6 µM
- Average Vmax (CYP2B6 [2]; CYP2B6, Table S3): 0.3343 ± 0.1111 nmol/min
- Vmax – repeat 1 (CYP2B6 [2]; CYP2B6, biological repeat 1): 276.3 pmol/min
- Vmax – repeat 2 (CYP2B6 [2]; CYP2B6, biological repeat 2): 264.2 pmol/min
- Vmax – repeat 3 (CYP2B6 [2]; CYP2B6, biological repeat 3): 462.4 pmol/min
- Km (CYP2B6 [2]; human, CYPexpress CYP2B6 enzyme reagent, pH 7.4, CYP2B6 1 mg/mL, three biological replicates, read-out: Average KM): 40.6 ± 19.6 µM
- Km (CYP2B6 [2]; human, CYPexpress CYP2B6 enzyme reagent, pH 7.4, CYP2B6, biological repeat 1, read-out: KM – repeat 1): 33 µM
- Km (CYP2B6 [2]; human, CYPexpress CYP2B6 enzyme reagent, pH 7.4, CYP2B6, biological repeat 2, read-out: KM – repeat 2): 25.9 µM
- Km (CYP2B6 [2]; human, CYPexpress CYP2B6 enzyme reagent, pH 7.4, CYP2B6, biological repeat 3, read-out: KM – repeat 3): 62.9 µM

SMILES: Cc1ccc(-c2c(-c3nn(C)c4ncnc(N5CC[C@H](N6CCCCC6)C5)c34)cnn2C)cc1 [CYP3cide]
- IC50 (CYP3A4 [3]; CYP3A4, Midazolam/LC-MS/MS): 0.3 ± 0.02 µM
- IC50 (CYP3A4 [3]; CYP3A4, Testosterone/LC-MS/MS): 0.69 µM
- Time dependence of CYP3A4 inhibition (CYP3A4 [4]; 0.05 µM inhibitor, pre-incubation between 5 and 30 min): time-dependent manner; also recorded: increase with time
- IC50 (CYP3A4 [4]; read-out: Average IC50, CYP3A4, DBF 4 µM, 5 min pre-incubation, DMSO 0.5%): 126 ± 66.2 nM
- IC50 (CYP3A4 [4]; read-out: IC50 (nM)– repeat 1, CYP3A4, biological repeat 1): 108 nM
- IC50 (CYP3A4 [4]; read-out: IC50 (nM)– repeat 2, CYP3A4, biological repeat 2): 200 nM
- IC50 (CYP3A4 [4]; read-out: IC50 (nM)– repeat 3, CYP3A4, biological repeat 3): 70.8 nM

SMILES: O=C(OCc1ccccc1)c1ccccc1-c1c2ccc(=O)cc-2oc2cc(OCc3ccccc3)ccc12 [DBF, benzyl 2-(6-(benzyloxy)-3-oxo-3H-xanthen-9-yl)benzoate]
- Km (CYP3A4 [5]): 0.87 µM and 1.37 µM
- Vmax – repeat 1 (CYP3A4 [6]; CYP3A4, biological repeat 1): 92.28 RFU/min
- Vmax – repeat 2 (CYP3A4 [6]; CYP3A4, biological repeat 2): 104.6 RFU/min
- Vmax – repeat 3 (CYP3A4 [6]; CYP3A4, biological repeat 3): 76.71 RFU/min

SMILES: CN[C@H]1CC[C@@H](c2ccc(Cl)c(Cl)c2)c2ccccc21 [Sertraline, sertraline hydrochloride]
- Time dependence of CYP2B6 inhibition (CYP2B6 [7]): increases with time; also recorded: time-dependent manner
- IC50 (CYP2D6 [8]): 5.79 µM and 3.22 µM and 4.24 µM and 4.42 µM
- IC50 (CYP2B6 [9]; CYP2B6, Bupropion/LC-MS/MS, ref 52): 0.2 ± 0.024 µM
- IC50 (CYP2B6 [9]; CYP2B6, Bupropion/LC-MS/MS, ref 54): 1.43 µM
- IC50 (CYP2B6 [9]; CYP2B6, HLM, Bupropion/LC-MS/MS): 3.2 µM
- Time dependence of CYP2D6 inhibition (CYP2D6 [10]): time-dependent manner; also recorded: increase in inhibition with time
- IC50 (CYP2D6 [11]): 2 µM
- IC50 (CYP2B6 [12]): 0.385 µM and 1.39 µM and 0.477 µM and 0.752 µM

SMILES: Nc1ccc(S(=O)(=O)Nc2ccnn2-c2ccccc2)cc1 [Sulfaphenazole, sulfaphenazole]
- Type of inhibition of CYP2C9 (CYP2C9): competitive inhibition

— article PMC12074421, “Development and Characterization of pFluor50, a Fluorogenic-Based Kinetic Assay System for High-Throughput Inhibition Screening and Characterization of Time-Dependent Inhibition and Inhibition Type for Six Human CYPs” (Molecules, 2025)
